Measured values from the supplement of paper PMC11451515.

Tested on: P12-Ichikawa
Test: cell viability relative to DMSO control; higher = less cytotoxic
Conditions: 48 h
Summary of the method: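 Leukemia cells (NOMO1 or SEM, 500 cells/well; P12-Ichikawa, 1000 cells/well) were seeded in 5 μl in 1536-well plates after at least four passages of adaptation to each medium. They received library compounds in DMSO by pin dosing, 11 threefold points from 47 μM to 0.79 nM. Luminescence with CellTiter-Glo One was read after 48 h at 37°C. Viability is stated per plate relative to DMSO wells, with cell-free wells as background.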

[1] = HPLM + 10% dialyzed FBS, 0.000781 µM
[2] = HPLM + 10% dialyzed FBS, 0.00234 µM
[3] = HPLM + 10% dialyzed FBS, 0.0211 µM
[4] = HPLM + 10% dialyzed FBS, 0.0632 µM
[5] = HPLM + 10% dialyzed FBS, 0.19 µM
[6] = HPLM + 10% dialyzed FBS, 0.569 µM
[7] = HPLM + 10% dialyzed FBS, 1.71 µM
[8] = HPLM + 10% dialyzed FBS, 5.12 µM
[9] = HPLM + 10% dialyzed FBS, 15.4 µM
[10] = HPLM + 10% dialyzed FBS, 46.1 µM
[11] = RPMI 5 mM glucose + 10% FBS, 0.000781 µM
[12] = RPMI 5 mM glucose + 10% FBS, 0.00234 µM
[13] = RPMI 5 mM glucose + 10% FBS, 0.00702 µM
[14] = RPMI 5 mM glucose + 10% FBS, 0.0211 µM
[15] = RPMI 5 mM glucose + 10% FBS, 0.0632 µM
[16] = RPMI 5 mM glucose + 10% FBS, 0.19 µM
[17] = RPMI 5 mM glucose + 10% FBS, 0.569 µM
[18] = RPMI 5 mM glucose + 10% FBS, 1.71 µM
[19] = RPMI 5 mM glucose + 10% FBS, 5.12 µM
[20] = RPMI 5 mM glucose + 10% FBS, 15.4 µM
[21] = RPMI 5 mM glucose + 10% FBS, 46.1 µM
[22] = RPMI 5 mM glucose + 10% dialyzed FBS, 0.000781 µM
[23] = RPMI 5 mM glucose + 10% dialyzed FBS, 0.00234 µM
[24] = RPMI 5 mM glucose + 10% dialyzed FBS, 0.00702 µM
[25] = RPMI 5 mM glucose + 10% dialyzed FBS, 0.0211 µM
[26] = RPMI 5 mM glucose + 10% dialyzed FBS, 0.0632 µM
[27] = RPMI 5 mM glucose + 10% dialyzed FBS, 0.19 µM
[28] = RPMI 5 mM glucose + 10% dialyzed FBS, 0.569 µM
[29] = RPMI 5 mM glucose + 10% dialyzed FBS, 1.71 µM
[30] = RPMI 5 mM glucose + 10% dialyzed FBS, 5.12 µM
[31] = RPMI 5 mM glucose + 10% dialyzed FBS, 15.4 µM
[32] = RPMI 5 mM glucose + 10% dialyzed FBS, 46.1 µM
[33] = HPLM + 10% dialyzed FBS, 0.00702 µM

Compound	cell viability [1]	cell viability [2]	cell viability [3]	cell viability [4]	cell viability [5]	cell viability [6]	cell viability [7]	cell viability [8]	cell viability [9]	cell viability [10]	cell viability [11]	cell viability [12]	cell viability [13]	cell viability [14]	cell viability [15]	cell viability [16]	cell viability [17]	cell viability [18]	cell viability [19]	cell viability [20]	cell viability [21]	cell viability [22]	cell viability [23]	cell viability [24]	cell viability [25]	cell viability [26]	cell viability [27]	cell viability [28]	cell viability [29]	cell viability [30]	cell viability [31]	cell viability [32]	cell viability [33]
O=C(O)CCn1c2c(c3ccccc31)C[C@H](N[S+](=O)([O-])c1ccc(F)cc1)CC2	117%	113%	110%	113%	106%	113%	111%	106%	100%	73.6%	119%	120%	121%	121%	120%	122%	122%	111%	114%	115%	95.5%	110%	116%	116%	114%	115%	103%	109%	108%	102%	92.2%	66.9%	
O=C(Nc1ncc(SCCN2CCCC2)s1)[C@]1(c2ccc([S+](=O)([O-])C3CC3)cc2)C[C@H]1C1CCCCC1	117%	115%	121%	116%	113%	116%	108%	111%	96.5%	68.8%	120%	120%	111%	123%	108%	123%	105%	112%	105%	108%	43.6%	111%	122%	114%	121%	109%	118%	120%	109%	108%	88.3%	35.9%	121%
COC(=O)C1C2CC3c4[nH]c5cc(OC)ccc5c4CCN3CC2CC(OC(=O)c2cc(OC)c(OC)c(OC)c2)C1OC (stereo not drawn)	106%	109%	107%	115%	111%	101%	105%	110%	107%	102%	115%	120%	121%	114%	107%	109%	118%	112%	111%	113%	91%	121%	106%	119%	114%	104%	113%	105%	106%	107%	99.5%	102%	112%
CC1(C)CNc2cc(NC(=O)c3cccnc3NCc3ccncc3)ccc21	120%	115%	121%	128%	116%	117%	118%	112%	110%	101%	127%	117%	122%	116%	115%	106%	119%	117%	111%	105%	107%	121%	124%	128%	121%	120%	120%	123%	112%	113%	113%	96.1%	125%
CN1c2ccccc2C(=O)N2CCc3c([nH]c4ccccc34)C21 (stereo not drawn)	122%	118%	123%	119%	120%	116%	115%	111%	116%	117%	125%	139%	113%	119%	121%	118%	122%	119%	117%	118%	111%	127%	122%	114%	125%	129%	116%	111%	114%	118%	115%	107%	112%
C=CC(=O)Nc1cccc(Nc2nc(NC3CCC(N(C)C)CC3)nc3c2ncn3C(C)C)c1 (stereo not drawn)	107%	115%	106%	112%	113%	105%	85.3%	36.7%	11.1%	5.85%	115%	114%	114%	112%	115%	112%	107%	94.8%	28.6%	8.46%	5.44%	108%	110%	108%	116%	122%	119%	123%	114%	35.5%	11%	6.55%	112%
CNC[C@H](O)c1cccc(O)c1	92%	95.4%	12.5%	107%	102%	108%	116%	111%	105%	109%	84.8%	98.4%	94.8%	15.9%	101%	109%	103%	109%	99.5%	103%	114%	84.5%	84.4%	89.1%	26.2%	97.9%	99.5%	101%	96.3%	91.2%	105%	98%	103%
O=C(O)/C=C/c1ccc(O)c(O)c1	118%	113%	112%	110%	103%	107%	99.2%	105%	88.3%	18.3%	106%	111%	111%	112%	108%	106%	113%	117%	105%	93.4%	6.72%	100%	120%	105%	116%	117%	110%	115%	103%	99.7%	88.7%	7.01%	105%
Cc1ccc([S+](=O)([O-])Nc2nc3ccccc3nc2Nc2ccc3nsnc3c2)cc1	105%	110%	110%	115%	116%	109%	112%	106%	36.3%	13.3%	93.4%	114%	104%	116%	103%	113%	110%	103%	77.5%	28.5%	12.4%	92%	107%	112%	116%	112%	104%	101%	112%	92.1%	74.1%	30.4%	111%
N#Cc1ccnc(Nc2cc(C3CCN(C4COC4)CC3)cc(N3CCC(F)(F)C3)n2)c1	97.8%	99.8%	105%	99.5%	104%	100%	108%	107%	88.2%	36.1%	105%	104%	101%	101%	102%	99.7%	108%	115%	108%	62.8%	32.2%	108%	104%	101%	103%	109%	104%	106%	108%	111%	56.8%	36.8%	104%
C[C@@H](NC(=O)c1ncnc(N)c1Cl)c1ncc(C(=O)Nc2cc(C(F)(F)F)c(Cl)cn2)s1	124%	119%	123%	120%	122%	116%	115%	116%	104%	92.7%																							121%
CC1(N2CCC(n3c([C@@H]4CCCNC4)nc4ccccc43)CC2)CCCCCCC1	101%	95.4%	111%	113%	115%	113%	115%	108%	88%	55.6%	98.3%	95%	104%	115%	110%	111%	124%	118%	110%	86.9%	67.9%	97.1%	101%	104%	115%	112%	107%	110%	109%	109%	81.7%	65.9%	106%
CC(C)c1ccc(Cn2ccc3c4c(N)nc(NC5CC5)nc4ccc32)cc1	110%	116%	84%	116%	100%	83.4%	65.6%	32.7%	26.7%	2.54%	118%	123%	127%	84.8%	126%	133%	133%	114%	52.2%	51.5%	2.24%	118%	124%	122%	86.4%	139%	126%	132%	85.5%	36.5%	32.1%	2.44%	119%
CC[C@H](C)C(=O)O[C@H]1C[C@H](O)\C=C2\C=C/[C@H](C)[C@H](CC[C@@H](O)C[C@@H](O)CC(O)=O)[C@@H]12	112%	116%	112%	111%	109%	107%	97.1%	98.2%	96.1%	86.7%	107%	106%	107%	113%	116%	110%	106%	104%	98.1%	98.9%	96.5%	114%	102%	109%	109%	111%	117%	106%	106%	105%	101%	92.1%	105%
C=CCc1cccc(/C=N/NC(=O)CN2CCN(Cc3ccccc3)CC2)c1O	120%	115%	118%	116%	117%	117%	106%	97%	64.2%	7.9%	110%	102%	113%		110%	113%	108%	108%	94.5%	52.9%	17.1%	109%	99.7%	109%	114%	109%	101%	112%	102%	87.5%	44.8%	13.5%	119%
CN(C)CCN(C)C(=O)c1ccc(NC(=O)Nc2ccc(-c3nc(N4CCOCC4)c4ccn(CC(F)(F)F)c4n3)cc2)cc1	114%	120%	122%	106%	100%	101%	89.7%	90.8%	90.8%	83.2%	115%	114%	121%	118%	85%	77.9%	77.7%	67.6%	64.9%	65.4%	69.9%												112%
